The results in this text go back to patent US6784137B2, “6-aryl-4-aminopicolinates and their use as herbicides” (Dow AgroSciences LLC, priority 2001, dated 2004).

The melting point is the temperature of the solid-liquid transition.

Consider `COC(=O)c1nc(-c2ccc(Cl)cc2OC)cc(NC(C)=O)c1Cl` [Compound 66, Methyl 4-acetamido-3-chloro-6-(4-chloro-2-methoxyphenyl)pyridine-2-carboxylate], for which the melting point was in the range of 176 to 178 °C.
In turn, `COC(=O)c1nc(-c2ccc(Cl)cc2OC)cc(N)c1Cl` [Compound 68, Methyl 4-amino-3-chloro-6-(4-chloro-2-methoxyphenyl)pyridine-2-carboxylate] registered a melting point of 152 to 154 °C.
Under `COc1ccc(-c2cc(N)c(Cl)c(C(=O)O)n2)cc1OC` [Compound 185, 4-Amino-3-chloro-6-(3,4-dimethoxyphenyl)pyridine-2-carboxylic acid] stands 182 to 183 °C.
Under `Cc1ccc(-c2cc(N)c(Cl)c(C(=O)O)n2)cc1Cl` [Compound 164, 4-Amino-3-chloro-6-(3-chloro-4-methylphenyl)pyridine-2-carboxylic acid] stands 188 °C.
`Cc1ccc(-c2cc(N)c(Cl)c(C(=O)O)n2)c(Cl)c1` [Compound 190, 4-Amino-3-chloro-6-(2-chloro-4-methylphenyl)pyridine-2-carboxylic acid] had a melting point of 71 to 72 °C.
For `Nc1cc(-c2ccccc2)nc(C(=O)O)c1Cl` [Compound 135, 4-Amino-3-chloro-6-(phenyl)pyridine-2-carboxylic acid] the value was 180 to 181 °C (dec.); for `COC(=O)c1nc(-c2cncnc2)cc(NC(C)=O)c1Cl` [Compound 117, Methyl 4-acetamido-3-chloro-6-(5-pyrimidinyl)pyridine-2-carboxylate], 178 to 185 °C; for `COC(=O)c1nc(-c2nccs2)c(F)c(N)c1Cl` [Compound 113, Methyl 4-amino-3-chloro-5-fluoro-6-(2-thiazolyl)pyridine-2-carboxylate], 185 to 187 °C.
For `COC(=O)c1nc(-c2cccc(C#N)c2)cc(N)c1Cl` [Compound 42, Methyl 4-amino-3-chloro-6-(3-cyanophenyl)pyridine-2-carboxylate] the value was 139 to 140 °C.
`Nc1c(Cl)c(C(=O)O)nc(-c2ccccc2)c1Cl` [Compound 133, 4-Amino-3,5-dichloro-6-(phenyl)pyridine-2-carboxylic acid] displayed a melting point of 135 °C.
For `Cc1ccccc1-c1cc(N)c(Cl)c(C(=O)O)n1` [Compound 165, 4-Amino-3-chloro-6-(2-methylphenyl)pyridine-2-carboxylic acid] the value was 188 to 189 °C.
Under `COC(=O)c1nc(-c2nnnn2C)cc(N)c1Cl` [Compound 10, Methyl 4-amino-3-chloro-6-(1-methyl-1H-tetrazol-5-yl)pyridine-2-carboxylate] stands 239 to 241 °C.
For `COC(=O)c1nc(-c2ccnc(OC)c2)cc(N)c1Cl` [Compound 107, Methyl 4-amino-3-chloro-6-(6-methoxy-4-pyridinyl)pyridine-2-carboxylate] the value was 185 to 187 °C.
`Nc1cc(-c2ccc(F)cc2F)nc(C(=O)O)c1Cl` [Compound 145, 4-Amino-3-chloro-6-(2,4-difluorophenyl)pyridine-2-carboxylic acid]: the melting point is 206 °C (dec.).
`Nc1cc(-c2cccc(C(F)(F)F)c2)nc(C(=O)O)c1Cl` [Compound 157, 4-Amino-3-chloro-6-[3-(trifluoromethyl)phenyl]pyridine-2-carboxylic acid]: the melting point was 175 to 176 °C.
Under `Cc1cc(F)c(-c2cc(N)c(Cl)c(C(=O)O)n2)cc1Cl` [Compound 192, 4-Amino-3-chloro-6-(5-chloro-2-fluoro-4-methylphenyl)pyridine-2-carboxylic acid] stands 173 to 175 °C; under `Nc1cc(-c2cnco2)nc(C(=O)O)c1Cl` [Compound 231, 4-Amino-3-chloro-6-(5-oxazolyl)pyridine-2-carboxylic acid], 166 to 170 °C; under `COC(=O)c1nc(-c2ccc(C)cc2)cc(NC(C)=O)c1Cl` [Compound 83, Methyl 4-acetamido-3-chloro-6-(4-methylphenyl)pyridine-2-carboxylate], 156 °C.
In turn, `COC(=O)c1nc(-c2nccs2)cc(NC(C)=O)c1Cl` [Compound 103, Methyl 4-acetamido-3-chloro-6-(2-thiazolyl)pyridine-2-carboxylate] yielded a melting point of 187 to 188 °C.
Turning to `COC(=O)c1nc(-c2ccc3c(c2)CCC3)cc(N)c1Cl` [Compound 75, Methyl 4-amino-3-chloro-6-(5-indanyl)pyridine-2-carboxylate], the melting point was 165 to 166 °C.
Under `COCc1cc(-c2cc(NC(C)=O)c(Cl)c(C(=O)OC)n2)ccc1Cl` [Compound 70, Methyl 4-acetamido-3-chloro-6-(4-chloro-3-methoxymethylphenyl)pyridine-2-carboxylate] stands 120 to 122 °C; under `COC(=O)c1nc(-c2ccc(F)cc2Cl)cc(NC(C)=O)c1Cl` [Compound 54, Methyl 4-acetamido-3-chloro-6-(2-chloro-4-fluorophenyl)pyridine-2-carboxylate], 162 to 163 °C.
Take `COC(=O)c1nc(-c2cc(Br)ccc2OC)cc(N)c1Cl` [Compound 32, Methyl 4-amino-3-chloro-6-(5-bromo-2-methoxyphenyl)pyridine-2-carboxylate]: the melting point is 191 to 192 °C.
`COC(=O)c1nc(-c2cc(Cl)c(C)cc2F)cc(NC(C)=O)c1Cl` [Compound 78, Methyl 4-acetamido-3-chloro-6-(5-chloro-2-fluoro-4-methylphenyl)pyridine-2-carboxylate] showed a melting point of 187 to 195 °C.
`COC(=O)c1nc(-c2nc3ccccc3s2)cc(N)c1Cl` [Compound 9, Methyl 4-amino-3-chloro-6-(2-benzthiazolyl)pyridine-2-carboxylate]: the melting point was 224 °C.
For `CCCCOCCOC(=O)c1nc(-c2ccc(Cl)cc2)c(F)c(N)c1Cl` [Compound 245, 2-Butoxyethyl 4-amino-3-chloro-5-fluoro-6-(4-chlorophenyl)pyridine-2-carboxylate] the value was 103 to 104 °C.
`COC(=O)c1nc(-c2ccc3c(c2Cl)OCO3)cc(NC(C)=O)c1Cl` [Compound 72, Methyl 4-acetamido-3-chloro-6-(2-chloro-3,4-methylenedioxyphenyl)pyridine-2-carboxylate]: the melting point is 195 to 196 °C.
Turning to `COCc1cc(-c2cc(N)c(Cl)c(C(=O)OC)n2)ccc1Cl` [Compound 71, Methyl 4-amino-3-chloro-6-(4-chloro-3-methoxymethylphenyl)pyridine-2-carboxylate], the melting point fell in the range of 73 to 74 °C.
Take `Nc1c(F)c(-c2ccc(Cl)nc2)nc(C(=O)O)c1Cl` [Compound 221, 4-Amino-3-chloro-5-fluoro-6-(6-chloro-3-pyridinyl)pyridine-2-carboxylic acid]: the melting point is 125 °C (dec.).
For `COC(=O)c1nc(-c2ccc(OC)c(OC)c2)cc(N)c1Cl` [Compound 64, Methyl 4-amino-3-chloro-6-(3,4-dimethoxyphenyl)pyridine-2-carboxylate], the melting point was 126 to 127 °C.
Under `COCc1cc(-c2cc(N)c(Cl)c(C(=O)O)n2)ccc1Cl` [Compound 195, 4-Amino-3-chloro-6-(4-chloro-3-methoxymethylphenyl)pyridine-2-carboxylic acid] stands 162 °C; under `COC(=O)c1nc(-c2cc(Cl)ccc2Cl)cc(NC(C)=O)c1Cl` [Compound 57, Methyl 4-acetamido-3-chloro-6-(2,5-dichlorophenyl)pyridine-2-carboxylate], 143 °C; under `COC(=O)c1nc(-c2cc(OC)ccc2OC)cc(NC(C)=O)c1Cl` [Compound 81, Methyl 4-acetamido-3-chloro-6-(2,5-dimethoxyphenyl)pyridine-2-carboxylate], 124 to 125 °C.
Molecule `COC(=O)c1nc(-c2ccccn2)cc(N)c1Cl` [Compound 109, Methyl 4-amino-3-chloro-6-(2-pyridinyl)pyridine-2-carboxylate] returned a melting point of 142 to 145 °C.
In the case of `COc1ccc(OC)c(-c2cc(N)c(Cl)c(C(=O)O)n2)c1` [Compound 194, 4-Amino-3-chloro-6-(2,5-dimethoxyphenyl)pyridine-2-carboxylic acid], the melting point lay in the range of 185 to 186 °C.
Under `COC(=O)c1nc(-c2ccc(Cl)c(F)c2)cc(N)c1Cl` [Compound 61, Methyl 4-amino-3-chloro-6-(4-chloro-3-fluorophenyl)pyridine-2-carboxylate] stands 149 to 151 °C; under `COC(=O)c1nc(-c2ccco2)cc(N)c1Cl` [Compound 110, Methyl 4-amino-3-chloro-6-(2-furanyl)pyridine-2-carboxylate], 117 °C.
`Nc1cc(-c2ccc(CF)cc2)nc(C(=O)O)c1Cl` [Compound 160, 4-Amino-3-chloro-6-[4-(fluoromethyl)phenyl]pyridine-2-carboxylic acid]: the melting point lay in the range of 156 to 157 °C.
The molecule `COC(=O)c1nc(-c2cc3ccccc3o2)cc(N)c1Cl` [Compound 96, Methyl 4-amino-3-chloro-6-(2-benzofuranyl)pyridine-2-carboxylate] showed a melting point of 182 to 183 °C.
On to `Nc1cc(-c2ccc3c(c2)CCO3)nc(C(=O)O)c1Cl` [Compound 201, 4-Amino-3-chloro-6-(2,3-dihydro-5-benzofuranyl)pyridine-2-carboxylic acid], for which the melting point was in the range of 218 to 220 °C.
With `Nc1cc(-c2ccc(OC(F)(F)F)cc2)nc(C(=O)O)c1Cl` [Compound 174, 4-Amino-3-chloro-6-[4-(trifluoromethoxy)phenyl]pyridine-2-carboxylic acid], the melting point lay within 164 to 165 °C.
For `COC(=O)c1nc(-c2ccc(C=O)cc2)cc(N)c1Cl` [Compound 41, Methyl 4-amino-3-chloro-6-(4-formylphenyl)pyridine-2-carboxylate] the value was 106 to 108 °C; for `COC(=O)c1nc(-c2ccccc2F)cc(N)c1Cl` [Compound 37, Methyl 4-amino-3-chloro-6-(2-fluorophenyl)pyridine-2-carboxylate], 121 to 122 °C.
